One experiment addresses T1, E. coli gyrase (Escherichia coli, UniProt P0AES4+P0AES6).
T1 construct: purchased Inspiralis
In words: E. coli gyrase supercoiling (sc) assay. It is filed as biochemical. To be noted: supercoiling assay kit, agarose gel quantification; read-out: Ec gyrase sc IC50. The protocol: The target activity on E. coli gyrase was assessed as described in Baumann et al., Angew Chem Int Ed Engl. 2014; 53(52):14605-9 using a commercial supercoiling (sc) assay kit from Inspiralis according to the manufacturer's instructions. The samples were separated on 0.8% (w/v) agarose gels and relaxed and supercoiled plasmid was visualized by ethidium bromide staining. Half-inhibitory concentrations (IC50) were calculated after image analysis and quantification (ImageJ) based on sigmoidal curve fitting (OriginPro).

In the next experiment the test system is S. aureus Newman. In words: MIC, microbroth dilution susceptibility assay. It is filed as cell-based. Conditions: Staphylococcus aureus, NEWMAN, read-out: MIC S. aureus Newman. The method in brief:
(§1)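 Inoculum: 10^4-10^6 cfu/mL from overnight culture. Medium: cation-adjusted Müller-Hinton broth. Incubation: approx. 16 h, 30-37° C. Read-out: visual, MIC at no growth.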
For orientation: Broth dilution looks for growth in wells or tubes with falling amounts of substance.

Another experiment relates to E. coli WT DSM-1116. Nature of the experiment: MIC, microbroth dilution susceptibility assay. Format: cell-based. Conditions: Escherichia coli, no visual growth after approx. 16 h. The method, boiled down: as §1
The next experiment deals with E. coli ΔtolC. Nature of the experiment: microbe, parasite or virus in culture. Format: cell-based. Conditions: Escherichia coli, 16 h, read-out: MIC E. coli ΔtolC, small panel, Tables 1a/1b; no visual growth after approx. 16 h. The method in brief:
as §1

A further experiment has as its system P. aeruginosa ΔmexAB. In words: microbe, parasite or virus in culture. It is filed as cell-based. Conditions: Pseudomonas aeruginosa, 16 h, read-out: MIC P. aeruginosa ΔmexAB, efflux-deficient strain; small panel, Tables 1a/1b. The method in brief: as §1
The next experiment concerns P. aeruginosa WT PA14. Nature of the experiment: MIC, microbroth dilution susceptibility assay. Format: cell-based. Conditions: Pseudomonas aeruginosa. The method, boiled down: as §1
The subject of a further experiment is S. aureus ATCC-29213. In words: MIC, microbroth dilution susceptibility assay. Conditions: Staphylococcus aureus, ATCC29213; large panel, Table 2a. Format: cell-based. The method, boiled down: as §1
For a further experiment, the system named is C. freundii DSM-30039. Nature of the experiment: MIC, microbroth dilution susceptibility assay. It is filed as cell-based. To be noted: Citrobacter freundii, DSM30039; large panel, Table 2a. The method, boiled down: as §1
Another experiment concerns K. pneumoniae DSM-30104. Nature of the experiment: MIC, microbroth dilution susceptibility assay. Format: cell-based. Conditions: Klebsiella pneumoniae, DSM30104; large panel, Table 2a. The method, boiled down: as §1
A further experiment concerns S. marcescens DSM-30121. In words: MIC, microbroth dilution susceptibility assay. To be noted: Serratia marcescens, DSM30121; large panel, Table 2a. Format: cell-based. The method in brief:
as §1

Another experiment deals with E. aerogenes DSM-30053. Nature of the experiment: MIC, microbroth dilution susceptibility assay. Format: cell-based. To be noted: Klebsiella aerogenes, DSM30053; large panel, Table 2a. The method in brief: as §1
The test system of the next experiment is A. baumannii DSM-30008. Nature of the experiment: MIC, microbroth dilution susceptibility assay. Format: cell-based. To be noted: Acinetobacter baumannii, DSM30008; large panel, Table 2a. The method in brief:
as §1

The next experiment deals with E. coli WT. Nature of the experiment: MIC, microbroth dilution susceptibility assay. Format: cell-based. Conditions: Escherichia coli; large panel, Table 2a. The method, boiled down: as §1
A further experiment has as its system P. vulgaris DSM-2140. In words: MIC, microbroth dilution susceptibility assay. Format: cell-based. To be noted: Proteus vulgaris, DSM2140; large panel, Table 2a. The method, boiled down:
as §1

Where [1] appears, read: DSM1116, 16 h, read-out: MIC E. coli WT DSM-1116, small panel, Tables 1a/1b.
[2] abbreviates: DSM1116, small panel, Tables 1a/1b, read-out: MIC E. coli WT DSM-1116.
The mark [3] stands for this setting: PA14, read-out: MIC P. aeruginosa WT PA14.
Setting [4] is: PA14, small panel, Tables 1a/1b, read-out: MIC P. aeruginosa WT PA14.

Structures are written as SMILES. ≈ marks a conversion by molar mass, not a printed value. Read-outs that look alike come from different tables or passages of the source.

T1 sequence (P0AES4 whole entry, one chain of several): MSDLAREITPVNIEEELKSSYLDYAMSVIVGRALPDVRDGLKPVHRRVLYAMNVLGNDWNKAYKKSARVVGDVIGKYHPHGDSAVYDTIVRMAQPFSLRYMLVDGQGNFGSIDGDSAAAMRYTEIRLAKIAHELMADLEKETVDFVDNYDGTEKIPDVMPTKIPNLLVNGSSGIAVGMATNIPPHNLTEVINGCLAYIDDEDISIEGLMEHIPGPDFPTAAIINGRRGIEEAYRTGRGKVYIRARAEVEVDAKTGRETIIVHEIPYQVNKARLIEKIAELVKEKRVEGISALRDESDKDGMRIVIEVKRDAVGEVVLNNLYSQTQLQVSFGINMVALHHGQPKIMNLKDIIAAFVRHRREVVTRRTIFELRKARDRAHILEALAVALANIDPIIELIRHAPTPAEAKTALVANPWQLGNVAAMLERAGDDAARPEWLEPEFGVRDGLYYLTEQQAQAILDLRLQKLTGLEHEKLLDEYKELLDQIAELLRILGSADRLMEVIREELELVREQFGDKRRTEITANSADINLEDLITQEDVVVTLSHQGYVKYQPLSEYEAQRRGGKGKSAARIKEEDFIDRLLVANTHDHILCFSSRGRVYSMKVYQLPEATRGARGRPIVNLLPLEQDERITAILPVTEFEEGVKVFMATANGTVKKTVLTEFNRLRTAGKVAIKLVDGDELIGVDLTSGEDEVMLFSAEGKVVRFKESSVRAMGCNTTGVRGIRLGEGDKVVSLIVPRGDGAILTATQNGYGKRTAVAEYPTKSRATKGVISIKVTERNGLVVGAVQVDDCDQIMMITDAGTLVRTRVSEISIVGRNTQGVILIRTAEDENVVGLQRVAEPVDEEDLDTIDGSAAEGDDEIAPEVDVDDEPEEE

Regarding `C/C(=C\c1ccc(C#N)cc1)C(=O)Nc1ccc(C(=O)N[C@@H](CC(N)=O)C(=O)Nc2ccc(C(=O)Nc3ccc(C(=O)Nc4ccc(C(=O)O)c(O)c4OC(C)C)c(O)c3OC(C)C)cc2)cc1` [Compound 124, (S,E)-4-(4-(4-(4-Amino-2-(4-(3-(4-cyanophenyl)-2-methylacrylamido)benzamido)-4-oxobutanamido)benzamido)-2-hydroxy-3-isopropoxybenzamido)-2-hydroxy-3-isopropoxybenzoic acid], the concentration for half-maximal inhibition (IC50) (usually the midpoint of a concentration-inhibition curve) at E. coli gyrase is 0.2 µM. Moreover, the MIC in the experiment on S. aureus Newman (small panel, Tables 1a/1b) amounted to 0.06 mg/L (≈ 0.0648 µM); in the experiment on E. coli WT DSM-1116 (setting [1]) it was 0.125 mg/L (≈ 0.135 µM); in the experiment on E. coli WT DSM-1116 (setting [2]) it was 0.5 mg/L (≈ 0.54 µM).
For the compound `CC(C)Oc1c(-n2cc(-c3ccc(NC(=O)[C@H](CC(N)=O)NC(=O)c4ccc(NC(=O)c5ccc(C#N)cc5)cc4)cc3)nn2)ccc(C(=O)Nc2ccc(C(=O)O)cc2)c1O` [Compound 119, 4-(4-(4-(4-(4-amino-2-(4-(4-cyanobenzamido)benzamido)-4-oxobutanamido)phenyl)-1H-1,2,3-triazol-1-yl)-2-hydroxy-3-isopropoxybenzamido)benzoic acid], the MIC is less than 0.03 mg/L in the experiment on E. coli ΔtolC; 2 mg/L (≈ 2.39 µM) in the experiment with P. aeruginosa ΔmexAB; less than 0.03 mg/L in the experiment with S. aureus Newman; 8 mg/L (≈ 9.57 µM) with P. aeruginosa WT PA14 (setting [3]); 0.06 mg/L (≈ 0.0718 µM) in the experiment on E. coli WT DSM-1116 (setting [1]). The IC50 on E. coli gyrase came out at 1.5 µM.
As for `CC(C)Oc1c(NC(=O)c2ccc(NC(=O)c3ccc(NC(=O)[C@H](CC(N)=O)NC(=O)c4ccc(NC(=O)c5ccc(C#N)cc5)cc4)cc3)c(OC(C)C)c2O)ccc(C(=O)O)c1O` [Compound 62, (S)-4-(4-(4-(4-amino-2-(4-(4-cyanobenzamido)benzamido)-4-oxobutanamido)benzamido)-2-hydroxy-3-isopropoxybenzamido)-2-hydroxy-3-isopropoxybenzoic acid], the MIC in the experiment on E. coli ΔtolC was no more than 0.03 mg/L; in the experiment with P. aeruginosa ΔmexAB, 1 mg/L (≈ 1.13 µM); in the experiment on S. aureus ATCC-29213, 0.025 mg/L (≈ 0.0282 µM); in the experiment with C. freundii DSM-30039, 0.125 mg/L (≈ 0.141 µM); in the experiment with S. aureus Newman (small panel, Tables 1a/1b), no more than 0.03 mg/L; in the experiment on P. aeruginosa WT PA14 (setting [4]) it was greater than 64 mg/L. Further, the MIC in the experiment on K. pneumoniae DSM-30104 was greater than 64 mg/L; with S. marcescens DSM-30121, greater than 64 mg/L; in the experiment with E. coli WT DSM-1116 (setting [2]), 0.25 mg/L (≈ 0.282 µM); with E. aerogenes DSM-30053 it was greater than 64 mg/L; against A. baumannii DSM-30008 it was 0.5 mg/L (≈ 0.564 µM); with E. coli WT it was 0.125 to 0.25 mg/L (≈ 0.141 to 0.282 µM). In the experiment with P. vulgaris DSM-2140, this compound had an MIC of 0.25 mg/L (≈ 0.282 µM).
As for `CC(C)Oc1c(N)ccc(C(=O)Nc2ccc(C(=O)N[C@@H](CC(N)=O)C(=O)Nc3ccc(C(=O)Nc4ccc(C(=O)Nc5ccc(C(=O)O)cc5)c(O)c4OC(C)C)cc3)cc2)c1O` [Compound 49, (S)-4-(4-(4-(4-amino-2-(4-(4-amino-2-hydroxy-3-isopropoxybenzamido)benzamido)-4-oxobutanamido)benzamido)-2-hydroxy-3-isopropoxybenzamido)benzoic acid], the MIC with E. coli ΔtolC was 0.01 to 0.06 mg/L (≈ 0.0114 to 0.0685 µM); with P. aeruginosa ΔmexAB, 2 to 4 mg/L (≈ 2.28 to 4.57 µM); in the experiment with S. aureus ATCC-29213, greater than 64 mg/L; against C. freundii DSM-30039 it was 2 mg/L (≈ 2.28 µM); in the experiment on S. aureus Newman (small panel, Tables 1a/1b), greater than 64 mg/L; in the experiment on P. aeruginosa WT PA14 (setting [4]), greater than 64 mg/L. For the same compound, the MIC in the experiment with K. pneumoniae DSM-30104 is greater than 64 mg/L; against S. marcescens DSM-30121, greater than 64 mg/L; in the experiment on E. coli WT DSM-1116 (setting [2]), 2 mg/L (≈ 2.28 µM); in the experiment with E. aerogenes DSM-30053 it was greater than 64 mg/L; with A. baumannii DSM-30008, 32 mg/L (≈ 36.5 µM); in the experiment on E. coli WT it was 2 mg/L (≈ 2.28 µM). Also, the MIC against P. vulgaris DSM-2140 came to 4 mg/L (≈ 4.57 µM).
Regarding `CC(C)Oc1c(NC(=O)c2ccc(NC(=O)[C@H](CC(N)=O)NC(=O)c3ccc(NC(=O)c4ccc(C5(C(F)(F)F)N=N5)cc4)cc3)cc2)ccc(C(=O)Nc2ccc(C(=O)O)cc2)c1O` [Compound 37, (S)-4-(4-(4-(4-amino-4-oxo-2-(4-(4-(3-(trifluoromethyl)-3H-diazirin-3-yl)benzamido)benzamido)butanamido)benzamido)-2-hydroxy-3-isopropoxybenzamido)benzoic acid], the MIC was 8 mg/L (≈ 8.94 µM) with E. coli ΔtolC; greater than 64 mg/L with P. aeruginosa ΔmexAB; greater than 64 mg/L with S. aureus Newman; greater than 64 mg/L with P. aeruginosa WT PA14 (setting [3]); 16 mg/L (≈ 17.9 µM) in the experiment with E. coli WT DSM-1116 (setting [1]). In addition, on E. coli gyrase, the IC50 turned out to be 16 µM.
On to `CC(C)Oc1c(NC(=O)c2ccc(NC(=O)c3ccc(NC(=O)[C@H](CC(N)=O)NC(=O)c4ccc(NC(=O)c5ccc([N+](=O)[O-])cc5)cc4)cc3)c(OC(C)C)c2O)ccc(C(=O)O)c1O` [Compound 61, (S)-4-(4-(4-(4-amino-2-(4-(4-nitrobenzamido)benzamido)-4-oxobutanamido)benzamido)-2-hydroxy-3-isopropoxybenzamido)-2-hydroxy-3-isopropoxybenzoic acid], for which the MIC in the experiment with E. coli ΔtolC was 0.125 to 0.25 mg/L (≈ 0.138 to 0.276 µM); with P. aeruginosa ΔmexAB, 1 to 2 mg/L (≈ 1.1 to 2.21 µM); against S. aureus ATCC-29213, 0.05 mg/L (≈ 0.0552 µM); with C. freundii DSM-30039, 0.5 mg/L (≈ 0.552 µM); in the experiment on S. aureus Newman (small panel, Tables 1a/1b), 0.05 mg/L (≈ 0.0552 µM); with P. aeruginosa WT PA14 (setting [4]), greater than 64 mg/L. The MIC was greater than 64 mg/L in the experiment with K. pneumoniae DSM-30104; greater than 64 mg/L against S. marcescens DSM-30121; 0.5 mg/L (≈ 0.552 µM) in the experiment with E. coli WT DSM-1116 (setting [2]); greater than 64 mg/L with E. aerogenes DSM-30053; 1 mg/L (≈ 1.1 µM) with A. baumannii DSM-30008; 0.5 mg/L (≈ 0.552 µM) against E. coli WT. In the experiment with P. vulgaris DSM-2140, this compound came in with an MIC of 0.5 mg/L (≈ 0.552 µM).
`C/C(=C/c1ccc(C#N)cc1)C(=O)Nc1ccc(C(=O)N[C@@H](CC(N)=O)C(=O)Nc2ccc(C(=O)Nc3ccc(C(=O)Nc4ccc(C(=O)O)cc4)c(O)c3OC(C)C)cc2)cc1` [Compound 122, (S,Z)-4-(4-(4-(4-amino-2-(4-(3-(4-cyanophenyl)-2-methylacrylamido)benzamido)-4-oxobutanamido)benzamido)-2-hydroxy-3-isopropoxybenzamido)benzoic acid]: the MIC was 0.25 mg/L (≈ 0.293 µM) with E. coli ΔtolC; greater than 64 mg/L in the experiment on P. aeruginosa ΔmexAB; 8 mg/L (≈ 9.39 µM) in the experiment with S. aureus Newman (small panel, Tables 1a/1b); greater than 64 mg/L with P. aeruginosa WT PA14 (setting [4]); 1 mg/L (≈ 1.17 µM) in the experiment with E. coli WT DSM-1116 (setting [2]).

For the origin of these results see patent US11034648B2, “Cystobactamide derivatives” (priority 2017, dated 2021).
